Results: patent publication US11478478B2, “2,3-disubstituted 1-acyl-4-amino-1,2,3,4-tetrahydroquinoline derivatives and their use as bromodomain inhibitors” (GLAXOSMITHKLINE INTELLECTUAL PROPERTY (NO.2) LIMITED, priority 2013, dated 2022)
Counter-ions that a name gives are not always drawn.

Biological target: T1, BRD4 BD2 (Homo sapiens, UniProt O60885, Y97A)
T1 construct: BRD4 (1-477) (Y97A) and (Y390A); made in house; host or cells: E. coli (pET15b vector)
Assay: TR-FRET binding assay, BRD4 BD2 (BD1-mutated protein)
Settings: read-out: pIC50 in the BRD4 BD2 assay (converted)
Experimental: Time Resolved Fluorescence Resonance Energy Transfer (TR-FRET) Assay Binding was assessed using a time resolved fluorescent resonance energy transfer binding assay. This utilises a 6 His purification tag at the N-terminal of the proteins as an epitope for an anti-6 His antibody labeled with Europium chelate (PerkinElmer AD0111) allowing binding of the Europium to the proteins which acts as the donor fluorophore. A small molecule, high affinity binder of the bromodomains BRD2, BRD3, BRD4 and BRDT has been labeled with Alexa Fluor647 (Reference Compound X) and this acts as the acceptor in the FRET pair.
In the absence of a competing compound, excitation of the Europium causes the donor to emit at λ618 nm which excites the Alexa labelled bromodomain binding compound leading to an increased energy transfer that is measurable at λ647 nM. In the presence of a sufficient concentration of a compound that can bind these proteins, the interaction is disrupted leading to a quantifiable drop in fluorescent resonance energy transfer.
The binding of the compounds of formula (I) to Bromodomains BRD2, BRD3, BRD4 and BRDT was assessed using mutated proteins to detect differential binding to either Binding Domain 1 (BD1) or Binding Domain 2 (BD2) on the bromodomain. These single residue mutations in the acetyl lysine binding pocket greatly lower the affinity of the fluoroligand (Reference Compound X) for the mutated domain (>1000 fold selective for the non-mutated domain). Therefore in the final assay conditions, binding of the fluoroligand to the mutated domain cannot be detected and subsequently the assay is suitable to determine the binding of compounds to the single non-mutated bromodomain.
Recombinant Human Bromodomains [(BRD2 (1-473) (Y113A) and (Y386A), BRD3 (1-435) (Y73A) and (Y348A) BRD4 (1-477) (Y97A) and (Y390A) and BRDT (1-397) (Y66A) and (Y309A)] were expressed in E. coli cells (in pET15b vector for BRD2/3/4 and in pET28a vector for BRDT) with a 6-His tag at the N-terminal. The His-tagged Bromodomain pellet was resuspended in 50 mM HEPES (pH7.5), 300 mM NaCl, 10 mM imidazole & 1 μl/ml protease inhibitor cocktail and extracted from the E. coli cells using sonication and purified using a nickel sepharose high performance column, the proteins were washed and then eluted with a linear gradient of 0-500 mM imidazole with buffer 50 mM HEPES (pH7.5), 150 mM NaCl, 500 mM imidazole, over 20 column volumes. Final purification was completed by Superdex 200 prep grade size exclusion column. Purified protein was stored at −80° C. in 20 mM HEPES pH 7.5 and 100 mM NaCl. Protein identity was confirmed by peptide mass fingerprinting and predicted molecular weight confirmed by mass spectrometry.
All assay components were dissolved in buffer composition of 50 mM HEPES pH7.4, 50 mM NaCl, 5% Glycerol, 1 mM DTT and 1 mM CHAPS. The final concentration of bromodomain proteins were 10 nM and the Alexa Fluor647 ligand was at Kd. These components were premixed and 5 μl of this reaction mixture was added to all wells containing 50 nl of various concentrations of test compound or DMSO vehicle (0.5% DMSO final) in Greiner 384 well black low volume microtitre plates and incubated in dark for 30 minutes at rt. 5 μl of detection mixture containing 1.5 nM final concentration anti-6His Europium chelate was added to all wells and a further dark incubation of at least 30 minutes was performed. Plates were then read on the Envision platereader, (λex=317 nm, donor λem=615 nm; acceptor λem=665 nm; Dichroic LANCE dual). Time resolved fluorescent intensity measurements were made at both emission wavelengths and the ratio of acceptor/donor was calculated and used for data analysis. All data was normalized to the mean of 16 high (inhibitor control—Example 11 of WO 2011/054846A1) and 16 low (DMSO) control wells on each plate. A four parameter curve fit of the following form was then applied: y=a+((b−a)/(1+(10^/10^)^d) […]

SMILES	IC50 [nM]
CC(=O)N1c2ccc(C3=CCOCC3)cc2[C@H](Nc2ccc(C#N)cn2)[C@@H](C)[C@@H]1C1CC1 (racemic) [Example 181, rac-6-(((2S,3R,4R)-1-acetyl-2-cyclopropyyl-6-(3,6-dihydro-2H-pyran-4-yl)-3-methyl-1,2,3,4-tetrahydroquinolin-4-yl)amino)nicotinonitrile]	100
CC(=O)N1c2ccc(C3CCNCC3)cc2[C@H](Nc2cnc(C)cn2)[C@@H](C)[C@@H]1C (racemic) [Example 183, rac-1-((2S,3R,4R)-2,3-dimethyl-4-((5-methylpyrazin-2-yl)amino)-6-(piperidin-4-yl)-3,4-dihydroquinolin-1(2H)-yl)ethanone, hydrochloride]	1000 to 100000
CC(=O)N1c2ccc(C3CCNCC3)cc2[C@H](Nc2ccc(C#N)cn2)[C@@H](C)[C@@H]1C (racemic) [Example 187, rac-6-(((2S,3R,4R)-1-acetyl-2,3-dimethyl-6-(piperidin-4-yl)-1,2,3,4-tetrahydroquinolin-4-yl)amino)nicotinonitrile]	1000 to 100000
CNC(=O)c1ccc(N[C@H]2c3cc(C4CCNCC4)ccc3N(C(C)=O)[C@@H](C)[C@@H]2C)cc1 (racemic) [Example 188, rac-4-(((2S,3R,4R)-1-acetyl-2,3-dimethyl-6-(piperidin-4-yl)-1,2,3,4-tetrahydroquinolin-4-yl)amino)-N-methylbenzamide]	1000 to 100000
CC(=O)N1c2ccc(C3=CCNCC3)cc2[C@H](Nc2ccc(C#N)cc2)[C@@H](C)[C@@H]1C1CC1 (racemic) [Example 192, rac-4-(((2S,3R,4R)-1-acetyl-2-cyclopropyl-3-methyl-6-(1,2,3,6-tetrahydropyridin-4-yl)-1,2,3,4-tetrahydroquinolin-4-yl)amino)benzonitrile]	100
CC(=O)N1c2ccc(N3CCOCC3)cc2[C@H](Nc2cccc(O)n2)[C@@H](C)[C@@H]1C1CC1 (racemic) [Example 210, rac-1-((2S,3R,4R)-2-cyclopropyl-4-((6-hydroxypyridin-2-yl)amino)-3-methyl-6-morpholino-3,4-dihydroquinolin-1(2H)-yl)ethanone]	1000 to 100000
CC(=O)N1c2ccc(N3CCOCC3)cc2[C@H](Nc2cnc(C)cn2)[C@@H](C)[C@@H]1C1CC1 (racemic) [Example 211, rac-1-((2S,3R,4R)-2-cyclopropyl-3-methyl-4-((5-methylpyrazin-2-yl)amino)-6-morpholino-3,4-dihydroquinolin-1(2H)-yl)ethanone]	1000 to 100000
CC[C@H]1[C@H](C)[C@@H](Nc2cnc(C)cn2)c2cc(N3CCNCC3)ccc2N1C(C)=O (racemic) [Example 218, rac-1-((2S,3R,4R)-2-ethyl-3-methyl-4-((5-methylpyrazin-2-yl)amino)-6-(piperazin-1-yl)-3,4-dihydroquinolin-1(2H)-yl)ethanone]	1000 to 100000
CC[C@H]1[C@H](C)[C@@H](Nc2ccc(C(=O)NC)cc2)c2cc(N3CCNCC3)ccc2N1C(C)=O (racemic) [Example 220, rac-4-(((2S,3R,4R)-1-acetyl-2-ethyl-3-methyl-6-(piperazin-1-yl)-1,2,3,4-tetrahydroquinolin-4-yl)amino)-N-methylbenzamide]	1000 to 100000
CC[C@H]1[C@H](C)[C@@H](Nc2cnc(C#N)cn2)c2cc(N3CCNCC3)ccc2N1C(C)=O (racemic) [Example 221, rac-5-(((2S,3R,4R)-1-acetyl-2-ethyl-3-methyl-6-(piperazin-1-yl)-1,2,3,4-tetrahydroquinolin-4-yl)amino)pyrazine-2-carbonitrile]	1000 to 100000
CC(=O)N1c2ccc(N3CCN[C@@H](C)C3)cc2[C@H](Nc2cnc(C)cn2)[C@@H](C)[C@@H]1C1CC1 (racemic) [Example 227, 1-((rac-2S,3R,4R)-2-cyclopropyl-3-methyl-6-((S)-3-methylpiperazin-1-yl)-4-((5-methylpyrazin-2-yl)amino)-3,4-dihydroquinolin-1(2H)-yl)ethanone]	1000 to 100000
CNC(=O)c1ccc(N[C@H]2c3cc(N4CCN[C@@H](C)C4)ccc3N(C(C)=O)[C@@H](C3CC3)[C@@H]2C)cc1 (racemic) [Example 228, 4-(((rac-2S,3R,4R)-1-acetyl-2-cyclopropyl-3-methyl-6-((S)-3-methylpiperazin-1-yl)-1,2,3,4-tetrahydroquinolin-4-yl)amino)-N-methylbenzamide]	1000 to 100000
CNC(=O)c1ccc2c(c1)[C@H](Nc1ccc(C#N)cn1)[C@@H](C)[C@H](C)N2C(C)=O (racemic) [Example 230, rac-(2S,3R,4R)-1-acetyl-4-((5-cyanopyridin-2-yl)amino)-N,2,3-trimethyl-1,2,3,4-tetrahydroquinoline-6-carboxamide]	100
CNC(=O)c1ccc2c(c1)[C@H](Nc1cccc(C)n1)[C@@H](C)[C@H](C)N2C(C)=O (racemic) [Example 231, rac-(2S,3R,4R)-1-acetyl-N,2,3-trimethyl-4-((6-methylpyridin-2-yl)amino)-1,2,3,4-tetrahydroquinoline-6-carboxamide]	100
CC[C@@H]1[C@@H](C)[C@H](Nc2cccc(C)n2)c2cc(C(=O)NC)ccc2N1C(C)=O (racemic) [Example 235, rac-(2S,3R,4R)-1-acetyl-2-ethyl-N,3-dimethyl-4-((6-methylpyridin-2-yl)amino)-1,2,3,4-tetrahydroquinoline-6-carboxamide]	100
CC[C@H]1[C@H](C)[C@@H](Nc2ccc(C#N)cn2)c2cc(C(=O)NC)ccc2N1C(C)=O (racemic) [Example 237, rac-(2S,3R,4R)-1-acetyl-4-((5-cyanopyridin-2-yl)amino)-2-ethyl-N,3-dimethyl-1,2,3,4-tetrahydroquinoline-6-carboxamide]	100
CNC(=O)c1ccc2c(c1)[C@H](Nc1nccc(C)n1)[C@@H](C)[C@H](C1CC1)N2C(C)=O (racemic) [Example 240, rac-(2S,3R,4R)-1-acetyl-2-cyclopropyl-N,3-dimethyl-4-((4-methylpyrimidin-2-yl)amino)-1,2,3,4-tetrahydroquinoline-6-carboxamide]	100
CNC(=O)c1ccc2c(c1)[C@H](Nc1ccc(C#N)cc1)[C@@H](C)[C@H](C1CC1)N2C(C)=O (racemic) [Example 243, rac-(2S,3R,4R)-1-acetyl-4-((4-cyanophenyl)amino)-2-cyclopropyl-N,3-dimethyl-1,2,3,4-tetrahydroquinoline-6-carboxamide]	100
CCNC(=O)c1ccc2c(c1)[C@H](Nc1cccc(C)n1)[C@@H](C)[C@H](CC)N2C(C)=O (racemic) [Example 279, rac-(2S,3R,4R)-1-acetyl-N,2-diethyl-3-methyl-4-((6-methylpyridin-2-yl)amino)-1,2,3,4-tetrahydroquinoline-6-carboxamide]	100
CC[C@H]1[C@H](C)[C@@H](Nc2cccc(C)n2)c2cc(C(=O)NCCC#N)ccc2N1C(C)=O (racemic) [Example 283, rac-(2S,3R,4R)-1-acetyl-N-(2-cyanoethyl)-2-ethyl-3-methyl-4-((6-methylpyridin-2-yl)amino)-1,2,3,4-tetrahydroquinoline-6-carboxamide]	100
CC[C@H]1[C@H](C)[C@@H](Nc2cccc(C)n2)c2cc(C(=O)NC(C)C)ccc2N1C(C)=O (racemic) [Example 285, rac-(2S,3R,4R)-1-acetyl-2-ethyl-N-isopropyl-3-methyl-4-((6-methylpyridin-2-yl)amino)-1,2,3,4-tetrahydroquinoline-6-carboxamide]	100
